Assay results reported in US12258547B2, “Cell culture plate, method for preparing thereof and method for detecting a substance” (UPM-Kymmene Corporation, priority 2019, dated 2025).
Structures can show the parent of a compound that is named as a salt.

How the values were obtained:
BJ cells [1] = experiment: Previous cytotoxicity data on BJ cells obtained without barriers; format: cell-based; conditions: Homo sapiens, dosed without barriers
Description: The aim was to detect dose-dependent effect by using a concentration that was expected to kill about half of the cells and a concentration two times bigger than that.

BJ cells [2] = experiment: Leakage Test 1: 3D-printed barriers, BJ cells outside, chemical dosed inside, WST-1 and microscopy; format: cell-based, Human; conditions: SDS 80 and 40 μg/ml, amitriptyline 20 and 10 μg/ml dosed inside barrier, 24 hrs
Protocol: It was investigated whether the 3D-printed GrowDex barriers are suitable for their intended use, i.e. to prevent the movement of cells across the barrier but allow the passage of chemicals. In order to test this, BJ cells were seeded outside of the barrier, and chemicals (SDS and Amitriptyline hydrochloride), which are known to be toxic to BJ cells, were applied inside of the barrier. After 24 hrs incubation it was evaluated microscopically whether cells had stayed outside of the barriers and whether the chemical dosed in the middle of the barrier killed the cells outside of the barrier. For quantification of cell viability, WST-1 assay was used. WST-1 assay was selected as it was used previously successfully with manually constructed barriers.
12-Well Plates: 400 μl BJ suspension (100 000 cells/ml) was seeded outside of the barriers (→altogether 40 000 BJ cells), and 100 μl BJ cell culture medium was pipetted inside of the barriers.
24-Well Plates: 200 μl of BJ suspension (100 000 cells/ml) was seeded outside of the barriers (→altogether 20 000 BJ cells), and 50 μl BJ cell culture medium was pipetted inside of the barriers. […]
The plates were incubated for 2.5 hrs before absorbance measurement at 450 nm. The absorbance was measured using multipoint measurement with 49 reads/well in 24-well plates and 81 reads/well in 12-well plates.

[3] = Leakage Test 2: 3D-printed 1.5% GrowDex barriers, BJ cells outside, chemical dosed inside, WST-1; format: cell-based, Human; conditions: human; for viability at 24 h, 100 μg/ml: 100 μg/ml dosed into other side of barrier; for viability at 24 h, 100 μg/ml / viability at 24 h, 200 μg/ml: read-out: Viability % of Control; for viability at 24 h, 200 μg/ml: 200 μg/ml dosed into other side of barrier
Protocol: (§1) For this purpose, we • decreased the cell number from the 40 000 cells/well that was used in Test 1, to 20 000 cells/well • increased the Amitriptyline concentrations from 10 and 20 μg/ml used in Test 1 to 100 and 200 μg/ml, and the SDS concentrations from 40 and 80 μg/ml used in Test 1 to 100 and 200 μg/ml. [By decreasing cell number and increasing chemical concentration it was aimed to increase the sensitivity of the test, and expect to obtain more (measurable/visible) impacts on cells]. • included following blanks: • 1.5% GrowDex barrier on poly-D-lysine coated wells in BJ cell culture medium and WST-1, but no cells • 1.5% GrowDex barrier in MEM, no coating, no cells • 1.5% GrowDex barrier in PBS, no coating, no cells • In addition, the number of measurements/well in the multipoint absorbance reading was increased from 81 to 225 reads/well in order to get denser coverage of the well.
(§2) 1.5% GrowDex barriers consisting of four layers, were printed on a 12-well plate. For more details on 3D-printing, see Appendix 1. After construction, the barriers were left to dry for 1 hr at room temperature, after which they were covered with MEM. The plate was sealed with parafilm and stored at 4° C. until used.
(§3) The next day after construction of the barriers, BJ fibroblasts were seeded: 400 μl BJ suspension (50 000 cells/ml) was seeded outside of the barriers (→altogether 20 000 BJ cells), and 100 μl BJ cell culture medium was pipetted inside of the barriers. The cells were let to grow for 24 hrs before exposure.
(§4) 2.0 mg/ml stocks were prepared from both Amitriptyline and SDS in BJ cell culture medium with 5% FBS. The stocks were first diluted 1:10 to obtain […] chemical dilution. And the 200 μg/ml chemical dilution was further diluted 1:2 to obtain 100 μg/ml chemical dilution. These dilutions, i.e. 200 and 100 μg/ml were used in the exposure.
(§5) The medium was removed carefully from both inside and outside of the barriers. 400 μl BJ cell culture medium with 5% FBS was pipetted outside of the barrier (where the cells had been seeded on previous day). 100 μl chemical dilution (SDS or Amitriptyline) was pipetted inside of the barriers. The exposure time was 24 hrs.
(§6) After 24 hrs chemical exposure, 10 μl WST-1 reagent was pipetted inside of the barriers, and 100 μl outside of the barriers. The plate was incubated for 30 min, 1.5 hrs and 2.0 hrs before absorbance measurement at 450 nm. The absorbance was measured using multipoint measurement with 225 reads/well.
(§7) In an attempt to quantify the cell viability after different treatments, the mean±STDEV absorbances were calculated using two rows of absorbances that were measured next to the outer edges of the wells. This area was assumed to be outside of the barrier.

BJ fibroblasts = experiment: as above; format: cell-based, Human; conditions: 24 hrs, 450 nm
Protocol: as §1, §2, §3, §4, §5, §6, §7

[4] = 0.2% Trypan blue permeability through GrowDex barrier, visual inspection; format: physicochemical; conditions: 0.2% dosed to left side
Protocol: Barriers were prepared in 6-well (circular shaped barriers) and in 24-well (straight wall shaped barriers) plates, and allowed to dry overnight. The barriers were high enough to prevent passage and mixing of the solutions over them. All passage and mixing had to occur through the barriers. Barrier permeability to chemicals was tested by visual inspection using 0.2% Trypan blue, by quantitative measurement using 1 mg/ml fluorescein solution, and by indirect method using sodium dodecyl sulfate (SDS), which is a toxic compound. 400 μl Dulbecco's PBS/well was added to the 24-well plates. The plates were incubated for 1 hour at room temperature to moisturize the GrowDex barrier. The DPBS was removed and replaced with 100 μl 0.2% Trypan blue on the left side of the barrier, and with an equal amount of DPBS on the right side of the barrier.

HepG2 cells = experiment: SDS permeability (indirect): cell viability observed microscopically inside and outside barrier circle; format: cell-based, Human; conditions: 0.4 mg/ml SDS dosed inside circle
Protocol: Barrier permeability to chemicals was tested by visual inspection using 0.2% Trypan blue, by quantitative measurement using 1 mg/ml fluorescein solution, and by indirect method using sodium dodecyl sulfate (SDS), which is a toxic compound. SDS is a detergent that is known to be toxic to all cell types. […] Circular shaped barriers were prepared in 6-well plates, and straight wall shaped barriers in 24-well plates. SH-SY5Y cells were seeded to the 24-well plate in both sides of the barriers in their normal cell culture medium at the density of 325 000 cells/50 μl. HepG2 cells were seeded to the 6-well plate both inside the barrier circles and outside of them at the density of 107 500 cells/50 μl. Next day 0.4 mg/ml SDS stock was prepared and the cells were exposed to it: HepG2 cells growing on the […]: 400 μl of 0.4 mg/ml SDS solution was pipetted inside the circle, and 400 μl of medium without SDS […] outside of the circle. […] The cell viability was observed microscopically.

SH-SY5Y cells = experiment: SDS permeability (indirect): cell viability observed microscopically on both sides of barrier; format: cell-based, Human; conditions: 0.4 mg/ml SDS dosed left
Protocol: Barrier permeability to chemicals was tested by visual inspection using 0.2% Trypan blue, by quantitative measurement using 1 mg/ml fluorescein solution, and by indirect method using sodium dodecyl sulfate (SDS), which is a toxic compound. SDS is a detergent that is known to be toxic to all cell types. […] Circular shaped barriers were prepared in 6-well plates, and straight wall shaped barriers in 24-well plates. SH-SY5Y cells were seeded to the 24-well plate in both sides of the barriers in their normal cell culture medium at the density of 325 000 cells/50 μl. HepG2 cells were seeded to the 6-well plate both inside the barrier circles and outside of them at the density of 107 500 cells/50 μl. Next day 0.4 mg/ml SDS stock was prepared and the cells were exposed to it: SH-SY5Y cells growing on the 24 well plate: 100 μl of 0.4 mg/ml SDS solution was pipetted to the left side of the barrier. 100 μl medium without SDS was pipetted to the right side of the barrier. […] The cell viability was observed microscopically.

[5] = 100 μg/ml dosed into other side of barrier
[6] = 200 μg/ml dosed into other side of barrier

SMILES | IC50 (BJ cells [1]) | toxicity to BJ cells across 3D-printed barrier (BJ cells [2]) | viability at 24 h, 100 μg/ml [3] | cytotoxicity at 24 h, 100 μg/ml ([3]; 100 μg/ml exposure, across barrier, read-out: reduction in BJ viability) | viability at 24 h, 200 μg/ml [3] | cytotoxicity at 24 h, 200 μg/ml ([3]; 200 μg/ml exposure, across barrier, read-out: reduction in BJ viability) | Mean absorbance, stdev (BJ fibroblasts; [5]) | Mean absorbance, stdev (BJ fibroblasts; [6]) | distribution of blue color ([4]; after six hours) | distribution of blue color ([4]; next day) | cell viability inside the GrowDex circle (dosed side) (HepG2 cells; 24 hours) | cell viability outside of the circle (HepG2 cells; 24 hours) | HepG2 cells died outside of the circle (HepG2 cells; 48 hours) | cell viability, left side of the barrier (dosed side) (SH-SY5Y cells; 24 hours) | cell viability, right side of the barrier (SH-SY5Y cells; 24 hours) | cell viability, both compartments (SH-SY5Y cells; 48 hours)
CN(C)CCC=C1c2ccccc2CCc2ccccc21 [Amitriptyline hydrochloride, 3-(10,11-dihydro-5H-dibenzo[a,d]cycloheptene-5-ylidene)-N,N-dimethylpropan-1-amine] | 12 µg/mL | not toxic | 90% | 10% | 84% | 16% | 0.911 ± 0.283 | 0.844 ± 0.318 | – | – | – | – | – | – | – | –
Cc1cc(-c2ccc(/N=N/c3c(S(=O)(=O)O)cc4cc(S(=O)(=O)O)cc(N)c4c3O)c(C)c2)ccc1/N=N/c1c(S(=O)(=O)O)cc2cc(S(=O)(=O)O)cc(N)c2c1O [Trypan Blue] | – | – | – | – | – | – | – | – | absorbed most of the blue color | evenly distributed on the both sides of the barrier | – | – | – | – | – | –
CCCCCCCCCCCCOS(=O)(=O)[O-].[Na+] [SDS, Sodium Dodecyl Sulfate] | 47 µg/mL | not toxic | 106% | – | 118% | – | 1.072 ± 0.322 | 1.189 ± 0.406 | – | – | all HepG2 cells were dead inside the GrowDex circle | also outside of the circle next to the GrowDex barrier | about 95% | all SH-SY5Y cells in the left side of the barrier were dead | cells were dead next to the barrier, but not all over the well | all cells were dead in both compartments
